# Data reported in ChEMBL document CHEMBL1153762, “Novel, broad-spectrum anticonvulsants containing a sulfamide group: advancement of N-((benzo[b]thien-3-yl)methyl)sulfamide (JNJ-26990990) into human clinical studies” (J Med Chem, 2009).
# Activity calls are given as the source filed them.
# Key:
# [1] = Neurotoxicity in po dosed rat assessed as motor impairment by rotarod test; assay type: toxicity, organism-based; conditions: in vivo
# Plasma [2] = test: Metabolic stability in rat plasma assessed as formation of biotransformation product N-[(1-oxido-1-benzothien-3-yl)methyl]sulfamide at 500 mg, po up to 72 hrs by MS/MS analysis; assay type: ADME, organism-based; conditions: in vivo
# Mus musculus [3] = test: Anticonvulsant activity against pentylenetetrazole-induced seizure in ip dosed CF1 mouse after 0.25 hrs; assay type: functional; conditions: Mus musculus, CF1, ip, 0.25 h; read-out: ED50
# Mus musculus [4] = species on record: Mus musculus; test: Inhibition of kainate receptor in mouse cortical neuron assessed as inhibition of kainic acid-induced receptor current at 100 uM by whole-cell patch-clamp technique
# [5] = Metabolic stability in rat urine assessed as formation of N-[(1-oxido-1-benzothien-3-yl)methyl]sulfamide at 59.2 kBq/mg, po after 24 hrs by MS/MS analysis; assay type: ADME, organism-based; conditions: in vivo
# Mus musculus [6] = test: Anticonvulsant activity against maximal electroshock-induced seizure in po dosed CF1 mouse after 1 hr; assay type: functional; conditions: Mus musculus, CF1, po, 1 h; read-out: ED50
# Mus musculus [7] = test: Anticonvulsant activity against pentylenetetrazole-induced seizure in CF1 mouse assessed as increase in threshold of seizure twitch at 107 mg/kg, ip administered 15 mins before pentylenetetrazole infusion; assay type: functional; conditions: route intraperitoneal
# Mus musculus [8] = test: Anticonvulsant activity against audiogenic seizures in ip dosed AGS mouse assessed as inhibition of hindlimb tonic extension administered 1 hr prior to 11 kHz sound induction; assay type: functional; conditions: Mus musculus, AGS, Hindlimb, ip; read-out: ED50
# Rattus norvegicus [9] = test: Anticonvulsant activity against maximal electroshock-induced seizure in po dosed Sprague-Dawley rat after 2 hrs; assay type: functional; conditions: Rattus norvegicus, Sprague-Dawley, po, 2 h; read-out: ED50
# [10] = Metabolic stability in rat urine assessed as formation of [(Benzo[b]thiophene-3-carbonyl)-amino]-acetic acid at 59.2 kBq/mg, po after 8 to 24 hrs by MS/MS analysis; assay type: ADME, organism-based; conditions: in vivo
# [11] = Half life in mouse at 30 mg/kg, po administered as bolus dose; assay type: ADME, organism-based; parameters: dose 30 mg/kg, route oral; conditions: in vivo
# [12] = Volume of distribution at steady state in mouse at 30 mg/kg, po and 3 mg/kg, iv administered as bolus dose; assay type: ADME, organism-based; conditions: in vivo, read-out: Vdss
# [13] = Metabolic stability in rat urine assessed as formation of benzothiophene-3-carboxylic acid at 59.2 kBq/mg, po after 8 to 24 hrs by MS/MS analysis; assay type: ADME, organism-based; conditions: in vivo
# Mus musculus [14] = test: Ratio of compound ED50 to topiramate ED50 for anticonvulsant activity against audiogenic seizures in ip dosed AGS mouse; assay type: functional
# [15] = biological target: Voltage-dependent N-type calcium channel subunit alpha-1B (Rattus norvegicus) (UniProt Q02294); test: Inhibition of rat Cav2.2 channel expressed in 5 Hz frequency-stimulated HEK cells at 30 uM by whole-cell patch-clamp technique; assay type: cell-based; conditions: HEK293
# [16] = Bioavailability in mouse at 30 mg/kg, po and 3 mg/kg, iv administered as bolus dose; assay type: ADME, organism-based; conditions: in vivo
# [17] = Metabolic stability in rat urine assessed as formation of biotransformation product N-[(1-oxido-1-benzothien-3-yl)methyl]sulfamide at 500 mg, po up to 24 hrs by MS/MS analysis; assay type: ADME, organism-based; conditions: in vivo
# Plasma [18] = test: Metabolic stability in rat plasma assessed as formation of benzothiophene-3-carboxylic acid at 59.2 kBq/mg, po after 4 hrs by MS/MS analysis; assay type: ADME, organism-based; conditions: in vivo
# Rattus norvegicus [19] = test: Protective index, ratio of TD50 for neurotoxicity in po dosed rat to ED50 for anticonvulsant activity against maximal electroshock-induced seizure in po dosed rat; assay type: functional
# [20] = Plasma concentration in rat at 30 mg/kg, po after 2 hrs by LC/MS analysis; assay type: ADME, organism-based; parameters: dose 30 mg/kg, route oral
# [21] = Metabolic stability in human liver microsomes assessed as compound remaining at 2 uM after 10 mins; assay type: ADME, Microsome; conditions: read-out: Stability
# [22] = Metabolic stability in mouse liver microsomes assessed as compound remaining at 2 uM after 10 mins; assay type: ADME, Microsome; conditions: read-out: Stability
# [23] = biological target: Sodium channel protein type 2 subunit alpha (Rattus norvegicus) (UniProt P04775); test: Inhibition of rat Nav1.2 channel expressed in chinese hamster CHL1610 cells at preconditioning pulse of -107 mV after 2 to 3 mins by whole-cell patch-clamp technique; assay type: cell-based
# Carbonic anhydrase 2 = Carbonic anhydrase 2 (Homo sapiens, UniProt P00918); test: Inhibition of human carbonic anhydrase 2 by fluorimetric assay
# Mus musculus [24] = test: Anticonvulsant activity against picrotoxin-induced seizure in ip dosed CF1 mouse after 0.25 hrs; assay type: functional
# [25] = Half life in human liver microsomes at 2 uM; assay type: ADME, Microsome
# [26] = Half life in mouse at 3 mg/kg, iv administered as bolus dose; assay type: ADME, organism-based; parameters: dose 3 mg/kg, route intravenous; conditions: in vivo
# [27] = Clearance in mouse at 30 mg/kg, po and 3 mg/kg, iv administered as bolus dose; assay type: ADME, organism-based; conditions: in vivo
# Carbonic anhydrase 1 = Carbonic anhydrase 1 (Homo sapiens, UniProt P00915); test: Inhibition of carbonic anhydrase 1
# [28] = biological target: Sodium channel protein type 2 subunit alpha (Rattus norvegicus) (UniProt P04775); test: (§1) Inhibition of rat Nav1.2 channel expressed in chinese hamster CHL1610 cells at preconditioning pulse of -67 mV after 2 to 3 mins by whole-cell patch-clamp technique; assay type: cell-based
# [29] = biological target: Sodium channel protein type 2 subunit alpha (Rattus norvegicus, UniProt P04775); test: as §1; assay type: cell-based
# Mus musculus [30] = species on record: Mus musculus; test: Activation of GABA receptor in mouse cortical neuron assessed as increase in GABA-induced receptor current at 100 uM by whole-cell patch-clamp technique
# Mus musculus [31] = test: Anticonvulsant activity against pentylenetetrazole-induced seizure in CF1 mouse assessed as increase in threshold of seizure twitch at 182 mg/kg, ip administered 15 mins before pentylenetetrazole infusion; assay type: functional; conditions: route intraperitoneal
# [32] = Bioavailability in rat at 2 mg/kg, po; assay type: ADME, organism-based; conditions: in vivo
# [33] = biological target: Voltage-dependent N-type calcium channel subunit alpha-1B (Rattus norvegicus) (UniProt Q02294); test: (§2) Inhibition of rat Cav2.2 channel expressed in 0.07 Hz frequency-stimulated HEK cells by whole-cell patch-clamp technique; assay type: cell-based; conditions: HEK293
# [34] = biological target: Voltage-dependent N-type calcium channel subunit alpha-1B (Rattus norvegicus, UniProt Q02294); test: as §2; assay type: cell-based, HEK293
# Mus musculus [35] = species on record: Mus musculus; test: Inhibition of NMDA receptor in mouse cortical neuron assessed as inhibition of glycine-induced receptor current at 100 uM by whole-cell patch-clamp technique
# [36] = Metabolic stability in rat liver microsomes assessed as compound remaining at 2 uM after 10 mins; assay type: ADME, Microsome; conditions: read-out: Stability
# [37] = biological target: Potassium voltage-gated channel subfamily KQT member 2 (Rattus norvegicus) (UniProt O88943); test: Activation of rat Kv7.2 assessed as increase in channel current at membrane potential of -70 to -3- mV at 300 uM by whole-cell patch-clamp technique; assay type: cell membranes
# Mus musculus [38] = test: Anticonvulsant activity against maximal electroshock-induced seizure in po dosed CF1 mouse after 3 hrs; assay type: functional
# [39] = biological target: Voltage-dependent N-type calcium channel subunit alpha-1B (Rattus norvegicus) (UniProt Q02294); test: Inhibition of rat Cav2.2 channel expressed in HEK cells assessed as depolarization-induced calcium influx by fluorescence-based assay; assay type: cell-based; conditions: HEK293
# Rattus norvegicus [40] = test: Total body water content in rat at 2 mg/kg, iv; assay type: ADME, organism-based; parameters: dose 2 mg/kg, route intravenous; conditions: in vivo
# [41] = Cmax in mouse at 30 mg/kg, po administered as bolus dose; assay type: ADME, organism-based; parameters: dose 30 mg/kg, route oral; conditions: in vivo
# Plasma [42] = test: Metabolic stability in rat plasma assessed as formation of N-[(1-oxido-1-benzothien-3-yl)methyl]sulfamide at 59.2 kBq/mg, po after 4 hrs by MS/MS analysis; assay type: ADME, organism-based; conditions: in vivo
# [43] = Ratio of drug level in brain to plasma in rat at 30 mg/kg, po up to 6 hrs; assay type: ADME, organism-based; parameters: dose 30 mg/kg, route oral; conditions: brain and plasma, read-out: BPR
# [44] = Neurotoxicity in ip dosed mouse assessed as motor impairment by rotarod test; assay type: toxicity, organism-based; conditions: in vivo
# [45] = Plasma concentration in rat assessed as unchanged compound remaining at 59.2 kBq/mg, po after 4 hrs by MS/MS analysis; assay type: ADME, organism-based; conditions: read-out: Activity
# Mus musculus [46] = test: Anticonvulsant activity against pentylenetetrazole-induced seizure in CF1 mouse assessed as increase in seizure threshold for clonus at 182 mg/kg, ip administered 15 mins before pentylenetetrazole infusion; assay type: functional; conditions: route intraperitoneal
# Mus musculus [47] = test: Anticonvulsant activity against bicuculline-induced seizure in ip dosed CF1 mouse after 0.25 hrs; assay type: functional; conditions: Mus musculus, CF1, ip, 0.25 h; read-out: ED50
# Mus musculus [48] = test: Total body water content in mouse at 30 mg/kg, po and 3 mg/kg, iv administered as bolus dose; assay type: ADME, organism-based; conditions: in vivo
# Mus musculus [49] = test: Anticonvulsant activity against pentylenetetrazole-induced seizure in CF1 mouse assessed as increase in seizure threshold for clonus at 107 mg/kg, ip administered 15 mins before pentylenetetrazole infusion; assay type: functional; conditions: route intraperitoneal
# Rattus norvegicus [50] = test: Anticonvulsant activity against electric stimulation-induced focal seizure in ip dosed Sprague-Dawley rat kindling model assessed as reduction of after-discharge duration administered 15 mins after last electric stimulation measured after 15 mins to 1 hr; assay type: functional; parameters: scale not given: the % may be the effect or the level left
# [51] = Bioavailability in rat at 10 mg/kg, po; assay type: ADME, organism-based; conditions: in vivo
# [52] = biological target: Voltage-dependent N-type calcium channel subunit alpha-1B (Rattus norvegicus) (UniProt Q02294); test: Inhibition of rat Cav2.2 channel expressed in 0.07 Hz frequency-stimulated HEK cells at 30 uM by whole-cell patch-clamp technique; assay type: cell-based; conditions: HEK293
# [53] = Drug level in rat brain at 30 mg/kg, po after 2 hrs by LC/MS analysis; assay type: ADME, organism-based; parameters: dose 30 mg/kg, route oral; conditions: read-out: Drug uptake
# Voltage-dependent N-type calcium channel subunit alpha-1B (Rattus norvegicus), sequence (Q02294 whole entry, looked up): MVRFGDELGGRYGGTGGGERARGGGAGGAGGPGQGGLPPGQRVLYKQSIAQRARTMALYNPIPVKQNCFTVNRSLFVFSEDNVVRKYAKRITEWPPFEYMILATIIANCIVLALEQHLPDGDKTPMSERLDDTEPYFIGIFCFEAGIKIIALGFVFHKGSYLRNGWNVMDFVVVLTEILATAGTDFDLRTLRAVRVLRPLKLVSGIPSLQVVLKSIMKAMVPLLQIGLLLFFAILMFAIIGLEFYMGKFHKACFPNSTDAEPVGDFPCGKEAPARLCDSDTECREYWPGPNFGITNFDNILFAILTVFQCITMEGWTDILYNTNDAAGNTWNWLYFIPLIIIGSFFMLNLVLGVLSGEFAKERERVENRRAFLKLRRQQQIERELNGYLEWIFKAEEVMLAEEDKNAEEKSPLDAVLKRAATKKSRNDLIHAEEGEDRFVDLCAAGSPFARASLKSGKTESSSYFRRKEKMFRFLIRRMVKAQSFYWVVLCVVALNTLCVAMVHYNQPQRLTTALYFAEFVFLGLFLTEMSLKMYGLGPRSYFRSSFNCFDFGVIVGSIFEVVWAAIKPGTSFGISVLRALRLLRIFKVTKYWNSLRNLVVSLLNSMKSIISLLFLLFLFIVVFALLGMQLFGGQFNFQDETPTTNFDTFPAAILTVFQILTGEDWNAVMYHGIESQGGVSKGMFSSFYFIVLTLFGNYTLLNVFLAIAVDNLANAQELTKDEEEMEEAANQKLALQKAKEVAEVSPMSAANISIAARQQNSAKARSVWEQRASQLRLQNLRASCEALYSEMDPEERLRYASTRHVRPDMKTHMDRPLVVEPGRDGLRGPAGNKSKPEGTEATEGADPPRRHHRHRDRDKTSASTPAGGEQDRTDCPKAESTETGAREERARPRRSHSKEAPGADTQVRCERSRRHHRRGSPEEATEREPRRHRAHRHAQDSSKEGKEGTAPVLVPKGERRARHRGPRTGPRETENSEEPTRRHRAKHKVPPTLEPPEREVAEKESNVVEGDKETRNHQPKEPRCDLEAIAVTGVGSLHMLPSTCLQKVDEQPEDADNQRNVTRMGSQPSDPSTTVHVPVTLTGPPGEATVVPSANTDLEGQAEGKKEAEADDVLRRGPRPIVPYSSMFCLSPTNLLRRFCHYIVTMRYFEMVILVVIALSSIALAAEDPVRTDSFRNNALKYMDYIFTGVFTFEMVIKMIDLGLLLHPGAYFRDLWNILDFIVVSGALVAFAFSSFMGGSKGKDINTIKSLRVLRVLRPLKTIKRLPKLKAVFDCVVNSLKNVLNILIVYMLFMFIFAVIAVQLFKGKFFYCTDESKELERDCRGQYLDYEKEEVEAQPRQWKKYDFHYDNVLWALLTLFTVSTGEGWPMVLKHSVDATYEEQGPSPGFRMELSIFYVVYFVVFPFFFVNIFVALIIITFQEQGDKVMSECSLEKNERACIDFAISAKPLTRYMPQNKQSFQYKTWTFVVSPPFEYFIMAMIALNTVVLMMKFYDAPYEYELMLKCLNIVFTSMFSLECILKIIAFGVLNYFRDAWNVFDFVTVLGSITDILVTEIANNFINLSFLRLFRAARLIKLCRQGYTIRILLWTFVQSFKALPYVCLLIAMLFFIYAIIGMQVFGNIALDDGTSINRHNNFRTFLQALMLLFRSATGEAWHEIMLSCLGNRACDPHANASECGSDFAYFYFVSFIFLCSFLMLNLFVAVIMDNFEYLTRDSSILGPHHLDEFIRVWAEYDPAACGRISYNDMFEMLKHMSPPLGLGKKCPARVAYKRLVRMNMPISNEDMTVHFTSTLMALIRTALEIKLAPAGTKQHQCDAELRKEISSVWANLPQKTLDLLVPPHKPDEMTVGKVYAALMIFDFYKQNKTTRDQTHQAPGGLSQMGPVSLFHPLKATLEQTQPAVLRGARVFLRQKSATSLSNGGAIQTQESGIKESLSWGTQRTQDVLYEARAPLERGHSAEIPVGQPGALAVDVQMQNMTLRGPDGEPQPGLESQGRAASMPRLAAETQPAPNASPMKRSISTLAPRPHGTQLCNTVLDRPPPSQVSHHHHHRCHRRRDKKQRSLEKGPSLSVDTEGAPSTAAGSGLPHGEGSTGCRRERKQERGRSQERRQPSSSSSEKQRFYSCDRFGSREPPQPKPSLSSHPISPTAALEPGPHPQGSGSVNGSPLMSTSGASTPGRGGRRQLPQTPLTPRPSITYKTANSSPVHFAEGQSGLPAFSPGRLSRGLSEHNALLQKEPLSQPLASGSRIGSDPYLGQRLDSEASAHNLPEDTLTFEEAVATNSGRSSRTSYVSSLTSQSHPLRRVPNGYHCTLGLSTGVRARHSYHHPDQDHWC
# Sodium channel protein type 2 subunit alpha (Rattus norvegicus), sequence (P04775 whole entry, looked up): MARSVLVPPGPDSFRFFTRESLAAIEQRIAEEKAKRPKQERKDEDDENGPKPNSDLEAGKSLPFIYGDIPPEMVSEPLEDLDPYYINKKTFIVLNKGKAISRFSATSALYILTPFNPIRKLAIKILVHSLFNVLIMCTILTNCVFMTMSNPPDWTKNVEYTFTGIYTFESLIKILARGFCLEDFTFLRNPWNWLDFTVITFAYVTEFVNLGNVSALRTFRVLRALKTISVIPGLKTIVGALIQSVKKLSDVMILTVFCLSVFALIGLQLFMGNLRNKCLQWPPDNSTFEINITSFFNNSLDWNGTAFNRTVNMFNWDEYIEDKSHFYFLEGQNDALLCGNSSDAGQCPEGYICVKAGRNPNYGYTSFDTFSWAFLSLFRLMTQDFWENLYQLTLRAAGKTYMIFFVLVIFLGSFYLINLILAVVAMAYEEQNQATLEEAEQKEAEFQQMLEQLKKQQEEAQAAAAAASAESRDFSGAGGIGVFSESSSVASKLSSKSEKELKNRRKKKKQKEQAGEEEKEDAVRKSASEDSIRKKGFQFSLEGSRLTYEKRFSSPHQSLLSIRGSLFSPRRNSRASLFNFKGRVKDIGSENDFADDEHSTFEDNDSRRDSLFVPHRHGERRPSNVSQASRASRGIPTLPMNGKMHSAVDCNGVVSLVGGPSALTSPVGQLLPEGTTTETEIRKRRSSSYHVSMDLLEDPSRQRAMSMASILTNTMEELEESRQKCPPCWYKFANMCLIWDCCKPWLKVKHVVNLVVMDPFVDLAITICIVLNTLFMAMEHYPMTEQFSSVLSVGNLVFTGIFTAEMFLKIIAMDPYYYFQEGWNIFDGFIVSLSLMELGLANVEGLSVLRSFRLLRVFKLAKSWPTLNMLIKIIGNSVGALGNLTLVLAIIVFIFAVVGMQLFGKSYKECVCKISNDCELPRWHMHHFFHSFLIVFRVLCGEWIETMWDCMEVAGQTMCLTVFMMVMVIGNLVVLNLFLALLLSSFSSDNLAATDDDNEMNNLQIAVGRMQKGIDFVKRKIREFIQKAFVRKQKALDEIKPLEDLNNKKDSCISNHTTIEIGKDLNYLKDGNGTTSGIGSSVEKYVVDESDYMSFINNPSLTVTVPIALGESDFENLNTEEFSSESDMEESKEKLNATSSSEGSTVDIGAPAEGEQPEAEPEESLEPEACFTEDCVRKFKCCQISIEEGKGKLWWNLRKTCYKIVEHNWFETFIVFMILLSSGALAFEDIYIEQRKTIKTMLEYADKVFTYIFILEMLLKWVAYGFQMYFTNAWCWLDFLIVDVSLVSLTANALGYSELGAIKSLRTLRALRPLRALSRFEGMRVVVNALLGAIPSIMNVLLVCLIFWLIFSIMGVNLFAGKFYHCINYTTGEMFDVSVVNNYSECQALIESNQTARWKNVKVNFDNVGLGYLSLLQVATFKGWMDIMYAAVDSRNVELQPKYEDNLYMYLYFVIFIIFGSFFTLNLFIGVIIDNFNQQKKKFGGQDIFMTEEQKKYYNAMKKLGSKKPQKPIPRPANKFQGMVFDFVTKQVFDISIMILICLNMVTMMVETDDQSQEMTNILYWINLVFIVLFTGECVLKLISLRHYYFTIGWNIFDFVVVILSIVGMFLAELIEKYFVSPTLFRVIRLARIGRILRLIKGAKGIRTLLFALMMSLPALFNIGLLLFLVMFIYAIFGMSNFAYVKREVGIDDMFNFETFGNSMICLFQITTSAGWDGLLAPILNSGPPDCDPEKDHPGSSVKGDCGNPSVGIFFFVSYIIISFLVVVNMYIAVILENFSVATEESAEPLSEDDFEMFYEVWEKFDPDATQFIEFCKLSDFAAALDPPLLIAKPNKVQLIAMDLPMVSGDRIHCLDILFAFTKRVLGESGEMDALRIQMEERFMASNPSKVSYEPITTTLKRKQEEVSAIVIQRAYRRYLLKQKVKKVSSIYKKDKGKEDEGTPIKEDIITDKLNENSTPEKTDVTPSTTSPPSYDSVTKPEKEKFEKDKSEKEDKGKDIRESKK
# Voltage-dependent N-type calcium channel subunit alpha-1B, sequence (Q02294 whole entry): as the sequence (Q02294 whole entry, looked up) above
# Carbonic anhydrase 1, sequence (P00915 whole entry): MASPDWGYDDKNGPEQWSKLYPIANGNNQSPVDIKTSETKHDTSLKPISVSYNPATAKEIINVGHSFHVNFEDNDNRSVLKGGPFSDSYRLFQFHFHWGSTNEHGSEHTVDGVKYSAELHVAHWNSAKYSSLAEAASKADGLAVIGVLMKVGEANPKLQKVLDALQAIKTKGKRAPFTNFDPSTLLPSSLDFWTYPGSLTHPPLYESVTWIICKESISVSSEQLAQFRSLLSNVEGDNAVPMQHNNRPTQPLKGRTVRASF
# Sodium channel protein type 2 subunit alpha, sequence (P04775 whole entry): as the sequence (P04775 whole entry, looked up) above
structure (smiles),measurement,setting,value
NS(=O)(=O)NCc1csc2ccccc12,TD50,[1],> 500 mg/kg
same,Activity,Plasma [2],78%
same,ED50,Mus musculus [3],161 mg/kg
same,inhibition,Mus musculus [4],8%
same,Activity,[5],48%
same,ED50,Mus musculus [6],107 mg/kg
same,Activity,Mus musculus [7],129%
same,ED50,Mus musculus [8],21 mg/kg
same,ED50,Rattus norvegicus [9],34 mg/kg
same,Activity,[10],4.2%
same,half-life,[11],1.5 h
same,Vd,[12],2.9 L/kg
same,Activity,[13],0.5%
same,Ratio ED50,Mus musculus [14],5
same,inhibition,[15],30%
same,bioavailability,[16],59%
same,Activity,[17],46%
same,Activity,Plasma [18],9%
same,Ratio TD50/ED50,Rattus norvegicus [19],>15
same,concentration at 2 h,[20],19 µM
same,"remaining at 10 min, 2 µM",[21],90%
same,"remaining at 10 min, 2 µM",[22],83%
same,inhibition,[23],inactive
same,IC50,Carbonic anhydrase 2,66 µM
same,ED50,Mus musculus [24],106 mg/kg
same,half-life at 2 µM,[25],> 1.67 h
same,half-life,[26],1.5 h
same,clearance,[27],30 mL/min/kg
same,IC50,Carbonic anhydrase 1,25 µM
same,inhibition,[28],Dose-dependent effect
same,IC50,[29],48 µM
same,inhibition,Mus musculus [30],2%
same,Activity,Mus musculus [31],141%
same,bioavailability,[32],89%
same,inhibition,[33],Dose-dependent effect
same,IC50,[34],133 µM
same,inhibition,Mus musculus [35],23%
same,"remaining at 10 min, 2 µM",[36],76%
same,Activity,[37],inactive
same,ED50,Mus musculus [38],119 mg/kg
same,inhibition,[39],Dose-dependent effect
same,Activity,Rattus norvegicus [40],670 mL/kg
same,Cmax,[41],3900 ng/mL
same,Activity,Plasma [42],31%
same,Kp at 6 h,[43],2.5
same,TD50,[44],182 mg/kg
same,remaining at 4 h,[45],60%
same,Activity,Mus musculus [46],159%
same,ED50,Mus musculus [47],156 mg/kg
same,Activity,Mus musculus [48],725 mL/kg
same,Activity,Mus musculus [49],147%
same,Activity,Rattus norvegicus [50],64%
same,bioavailability,[51],96%
same,inhibition,[52],20%
same,concentration at 2 h,[53],47 µM
